Measured values reported in PubChem BioAssay AID200 (DTP/NCI, 2004).
Several values for one entry are separate records, joined by “and”; a condition that tells them apart may be missing. Identical values can stand only once. Toxic doses and inconclusive results are not listed. *1 amine or outer side, *2 acyl side, *3 side chain or, on linkers, in order; H or OH if unused. Where a SMILES comes first, the peptide text is derived from it. Bridges are numbered along the chain shown (N, C = ends). Roman numbers before positions name the chains, in order. [ ]: non-standard residue; d: D form. Actinocin(9to1) = Cc1c2oc3c(C)ccc(C(=O)[*:1])c3nc-2c(C(=O)[*:2])c(N)c1=O; NMeA = CN[CH](C)C(=O)O; Sar = CNCC(=O)O

Test system: B6C3F1 mice, B16 melanoma ip, median survival T/C
Assay: NCI In Vivo Anticancer Drug Screen. Data for tumor model B16 Melanoma (intraperitoneal) in B6C3F1 mice
Conditions: endpoint: median survival time, higher = longer survival
Method in brief: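 Mice bearing transplanted tumor were dosed with compound or vehicle, and survival was recorded. Activity is expressed as the treated-group measurement (T) divided by the vehicle control measurement (C).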

[1] = dose: 3.12 mg/kg/injection, schedule: Q01DX009 (ip), vehicle: saline
[2] = dose: 6.25 mg/kg/injection, schedule: Q01DX009 (ip), vehicle: saline
[3] = dose: 12.5 mg/kg/injection, schedule: Q01DX009 (ip), vehicle: saline
[4] = dose: 25.0 mg/kg/injection, schedule: Q01DX009 (ip), vehicle: saline
[5] = dose: 50.0 mg/kg/injection, schedule: Q01DX009 (ip), vehicle: saline
[6] = dose: 25.0 mg/kg/injection, schedule: Q01DX009 (ip), vehicle: Klucel (hydroxypropylcellulose) (HPC)
[7] = dose: 100.0 mg/kg/injection, schedule: Q01DX009 (ip), vehicle: Klucel (hydroxypropylcellulose) (HPC)
[8] = dose: 50.0 mg/kg/injection, schedule: Q01DX009 (ip), vehicle: Klucel (hydroxypropylcellulose) (HPC)
[9] = dose: 200.0 mg/kg/injection, schedule: Q01DX009 (ip), vehicle: Klucel (hydroxypropylcellulose) (HPC)

O=C1C(CO)=C[C@@H](O)[C@H]2O[C@@H]12 was tested, and the T/C [1] was 88 % of control, the T/C [2] was 98 % of control and the T/C [3] was 100 % of control. The T/C [4] was 96 % of control and the T/C [5] was 106 % of control.
For CC(=O)NCCSC(=O)C(=O)SCCNC(C)=O, the T/C (dose: 50.0 mg/kg/injection, schedule: Q01DX009 (ip), vehicle: saline with Tween-80) was 88 % of control, the T/C (dose: 100.0 mg/kg/injection, schedule: Q01DX009 (ip), vehicle: saline with Tween-80) was 102 % of control and the T/C (dose: 200.0 mg/kg/injection, schedule: Q01DX009 (ip), vehicle: saline with Tween-80) was 87 % of control.
With CC(C)CC(NC(=O)OCC1c2ccccc2-c2ccccc21)C(=O)O (stereo unspecified) the T/C [6] was 102 % of control and the T/C [7] was 122 % of control and 101 % of control.
In the case of CN1CCCN(C(c2ccccc2)c2ccc(Br)cc2)CC1 (stereo unspecified), the T/C (dose: 18.0 mg/kg/injection, schedule: Q01DX009 (ip), vehicle: saline) was 98 % of control and the T/C (dose: 36.0 mg/kg/injection, schedule: Q01DX009 (ip), vehicle: saline) was 92 % of control.
For CCCC(=O)OCC1OC(n2cnc3c(=S)nc(N)[nH]c32)C(OC(=O)CCC)C1OC(=O)CCC (stereo unspecified), the T/C (dose: 0.78 mg/kg/injection, schedule: Q01DX009 (ip), vehicle: Klucel (hydroxypropylcellulose) (HPC)) was 103 % of control, the T/C (dose: 1.56 mg/kg/injection, schedule: Q01DX009 (ip), vehicle: Klucel (hydroxypropylcellulose) (HPC)) was 104 % of control and the T/C (dose: 3.12 mg/kg/injection, schedule: Q01DX009 (ip), vehicle: Klucel (hydroxypropylcellulose) (HPC)) was 110 % of control. For the same compound, the T/C (dose: 6.25 mg/kg/injection, schedule: Q01DX009 (ip), vehicle: Klucel (hydroxypropylcellulose) (HPC)) was 114 % of control.
For O=C(NC(Cc1ccc(I)cc1)C(=O)O)c1cccc(Br)c1 (stereo unspecified), the T/C [6] was 100 % of control, the T/C [8] was 104 % of control and the T/C [7] was 105 % of control. For the same compound, the T/C [9] was 103 % of control and the T/C (dose: 400.0 mg/kg/injection, schedule: Q01DX009 (ip), vehicle: Klucel (hydroxypropylcellulose) (HPC)) was 89 % of control.
With COc1ccc(OC)c(Cc2cnc3nc(N)nc(N)c3c2C)c1 the T/C (dose: 6.25 mg/kg/injection, schedule: Q01DX009 (ip), vehicle: water) was 106 % of control, the T/C (dose: 12.5 mg/kg/injection, schedule: Q01DX009 (ip), vehicle: water) was 104 % of control and the T/C (dose: 25.0 mg/kg/injection, schedule: Q01DX009 (ip), vehicle: water) was 99 % of control. For the same compound, the T/C (dose: 50.0 mg/kg/injection, schedule: Q01DX009 (ip), vehicle: water) was 93 % of control.
C=C(C)C(=O)OC1CC(C)(O)C2(O)CCC(C)(/C=C3\OC(=O)C(COC(C)=O)=C31)O2 (stereo unspecified) was tested, and the T/C (dose: 0.62 mg/kg/injection, schedule: Q01DX009 (ip), vehicle: distilled water + Tween-80 + alcohol) was 96 % of control, the T/C (dose: 1.25 mg/kg/injection, schedule: Q01DX009 (ip), vehicle: distilled water + Tween-80 + alcohol) was 105 % of control and the T/C (dose: 2.5 mg/kg/injection, schedule: Q01DX009 (ip), vehicle: distilled water + Tween-80 + alcohol) was 92 % of control. The T/C (dose: 5.0 mg/kg/injection, schedule: Q01DX009 (ip), vehicle: distilled water + Tween-80 + alcohol) was 89 % of control.
With Nc1nc(SCc2ccccc2Cl)c2ncn(C3OC(CO)C(O)C3O)c2n1 (stereo unspecified) the T/C (dose: 12.5 mg/kg/injection, schedule: Q01DX009 (ip), vehicle: saline with Tween-80) was 106 % of control and the T/C (dose: 25.0 mg/kg/injection, schedule: Q01DX009 (ip), vehicle: saline with Tween-80) was 90 % of control.
For O=C1CSC(c2cccs2)N1c1nncs1 (stereo unspecified), the T/C [6] was 102 % of control, the T/C [8] was 92 % of control and the T/C [7] was 92 % of control. The T/C [9] was 97 % of control.
For COc1cccc2c1C(=O)c1c(O)c3c(c(O)c1C2=O)C[C@@](O)(C(C)=O)C[C@@H]3OC1CC(N2CCCCC2)C(O)C(C)O1 (stereo partly specified), the T/C (dose: 0.78 mg/kg/injection, schedule: Q01DX001 (ip), vehicle: water) was 105 % of control, the T/C (dose: 1.56 mg/kg/injection, schedule: Q01DX001 (ip), vehicle: water) was 115 % of control and 121 % of control and the T/C (dose: 3.12 mg/kg/injection, schedule: Q01DX001 (ip), vehicle: water) was 116 % of control and 121 % of control.
With CCSCCNC(=O)[C@@]1(O)[C@H](O)[C@]2(CC)C=CCN3CC[C@@]4(c5cc([C@@]6(OC(C)=O)C[C@H]7C=C(CC)CN(CCc8c6[nH]c6ccccc86)C7)c(OC)cc5N(C)[C@@H]14)[C@@H]32 the T/C (dose: 0.5 mg/kg/injection, schedule: Q01DX009 (ip), vehicle: water) was 164 % of control.
For Cc1c2oc3c(C)ccc(C(=O)NC4C(=O)NC(C(C)C)C(=O)N5CCCC5C(=O)N(C)CC(=O)N(C)C(C)C(=O)OC4C)c3nc-2c(C(=O)NC2C(=O)NC(C(C)C)C(=O)N3CCCC3C(=O)N(C)CC(=O)N(C)C(C)C(=O)OC2C)c(N)c1=O (stereo unspecified) (I: TVP[Sar][NMeA] / II: TVP[Sar][NMeA]; ester I:1-I:C, II:1-II:C; linker I:N-II:N via Actinocin(9to1); configuration not given here), the T/C (dose: 0.25 mg/kg/injection, schedule: Q04DX003 (ip), vehicle: saline + alcohol) was 116 % of control, the T/C (dose: 0.5 mg/kg/injection, schedule: Q04DX003 (ip), vehicle: saline + alcohol) was 118 % of control and the T/C (dose: 1.0 mg/kg/injection, schedule: Q04DX003 (ip), vehicle: saline + alcohol) was 112 % of control and 113 % of control. The T/C (dose: 2.0 mg/kg/injection, schedule: Q04DX003 (ip), vehicle: saline + alcohol) was 116 % of control and 104 % of control and the T/C (dose: 4.0 mg/kg/injection, schedule: Q04DX003 (ip), vehicle: saline + alcohol) was 115 % of control.
Cc1c(O)ccc(=O)n1O was tested, and the T/C (dose: 16.0 mg/kg/injection, schedule: Q01DX009 (ip), vehicle: saline with Tween-80) was 101 % of control, the T/C (dose: 32.0 mg/kg/injection, schedule: Q01DX009 (ip), vehicle: saline with Tween-80) was 98 % of control and the T/C (dose: 64.0 mg/kg/injection, schedule: Q01DX009 (ip), vehicle: saline with Tween-80) was 101 % of control. The T/C (dose: 128.0 mg/kg/injection, schedule: Q01DX009 (ip), vehicle: saline with Tween-80) was 104 % of control.
O=C(NC(Cc1cccc(F)c1)C(=O)O)c1ccccc1 (stereo unspecified) was tested, and the T/C (dose: 6.25 mg/kg/injection, schedule: Q01DX009 (ip), vehicle: other) was 104 % of control, the T/C (dose: 12.5 mg/kg/injection, schedule: Q01DX009 (ip), vehicle: other) was 110 % of control and the T/C (dose: 25.0 mg/kg/injection, schedule: Q01DX009 (ip), vehicle: other) was 99 % of control. For the same compound, the T/C (dose: 50.0 mg/kg/injection, schedule: Q01DX009 (ip), vehicle: other) was 88 % of control.
CN1CCN(CCCN2c3ccccc3Sc3ccc(C(F)(F)F)cc32)CC1 was tested, and the T/C [1] was 100 % of control, the T/C [2] was 106 % of control and the T/C (dose: 8.0 mg/kg/injection, schedule: Q01DX009 (ip), vehicle: saline) was 107 % of control. The T/C [3] was 98 % of control, the T/C (dose: 16.0 mg/kg/injection, schedule: Q01DX009 (ip), vehicle: saline) was 93 % of control and the T/C (dose: 32.0 mg/kg/injection, schedule: Q01DX009 (ip), vehicle: saline) was 87 % of control.
In the case of CCCC(C(=O)OCCN1CCCC12CCCCC2)C1CCCC1 (stereo unspecified), the T/C [3] was 105 % of control, the T/C [4] was 91 % of control and the T/C [5] was 91 % of control.
For O=NN(CCF)C(=O)NC1CCC(=O)NC1=O (stereo unspecified), the T/C (dose: 7.5 mg/kg/injection, schedule: Q01DX001 (ip), vehicle: saline) was 192 % of control, the T/C (dose: 15.0 mg/kg/injection, schedule: Q01DX001 (ip), vehicle: saline) was 194 % of control and the T/C (dose: 30.0 mg/kg/injection, schedule: Q01DX001 (ip), vehicle: saline) was 235 % of control. The T/C (dose: 60.0 mg/kg/injection, schedule: Q01DX001 (ip), vehicle: saline) was 233 % of control.
For C=C1C(O)C2(O)OCC34C(CC5C(C)=CC(=O)C(O)C5(C)C23)OC(=O)C(OC(=O)C/C=C(\C)CCCCC)C14 (stereo unspecified), the T/C (dose: 4.0 mg/kg/injection, schedule: Q01DX009 (ip), vehicle: saline + alcohol) was 187 % of control, the T/C (dose: 4.8 mg/kg/injection, schedule: Q01DX009 (ip), vehicle: saline + Tween-80 + alcohol) was 156 % of control and the T/C (dose: 8.0 mg/kg/injection, schedule: Q01DX009 (ip), vehicle: saline + Tween-80 + alcohol) was 154 % of control. The T/C (dose: 8.0 mg/kg/injection, schedule: Q01DX009 (ip), vehicle: saline + alcohol) was 187 % of control.
In the case of CC(C)CC(NC=O)C(=O)O (stereo unspecified), the T/C [6] was 103 % of control, the T/C [8] was 103 % of control and the T/C [7] was 92 % of control and 100 % of control.
In the case of Cc1cn(C2CC3[O][Sn]([c]4ccccc4)([c]4ccccc4)[O]CC3O2)c(=O)[nH]c1=O (stereo unspecified), the T/C (dose: 25.0 mg/kg/injection, schedule: Q01DX009 (ip), vehicle: suspension in saline) was 102 % of control, the T/C (dose: 50.0 mg/kg/injection, schedule: Q01DX009 (ip), vehicle: suspension in saline) was 103 % of control and the T/C (dose: 100.0 mg/kg/injection, schedule: Q01DX009 (ip), vehicle: suspension in saline) was 113 % of control. For the same compound, the T/C (dose: 200.0 mg/kg/injection, schedule: Q01DX009 (ip), vehicle: suspension in saline) was 93 % of control.
